Key:
[1] = system: HEI-193 cells; assay: MTT cell viability assay in HEI-193 cells; type: cell-based, human; details: indicated concentrations, 7 days (FIG. 5A)
Description: To measure cell viability, MTT (3-(4,5-dimethylthiazol-2-yl)-2,5-diphenyltetrazolium bromide) assay was used. In other words, the cells were seeded in 96-well plates and treated with the indicated chemicals for a predetermined time. After removing the medium, 200 μl of MTT solution (0.5 mg/ml) dissolved in PBS was added to each well. Plates were then cultured at 37° C. for 4 hours, the MTT solution was removed, the precipitated substances were dissolved using a solution (DMSO:ethanol=1:1), and an amount of formazan dye produced was quantified by measuring the absorbance at 560 nm using an ELISA microplate reader (Thermo Fisher Scientific, MA, USA).

[2] = target: T1, interaction between TβR1 and RKIP (Homo sapiens, UniProt P30086+P36897); assay: GST-pull down assay of TβR1-RKIP interaction; type: binding
T1 construct: host or cells: HEK293 (TβR1 lysate)
Description: (§1) For protein-protein interaction analysis, glutathione S-transferase (GST)-pull down assay was performed. For GST-pull down, agarose-bead-conjugated GST-RKIP recombinant protein was reacted with FLAG-tagged TβR1-transfected HEK 293 cell lysates in PBS buffer at 4° C. for 1 hour. Immunoprecipitation (IP) assay was performed by reacting with FLAG-tagged TβR1- or HA-tagged RKIP-transfected HEI-193 cell lysates in PBS buffer. Whole lysates were reacted with appropriate primary antibodies at 4° C. for 2 hours and with agarose-bead-conjugated protein A/G (Invitrogen, Carlsbad, CA, USA) for 2 hours. After centrifugation, the precipitates were washed twice with RIPA buffer and subjected to SDS-PAGE and western blotting analysis.
T1 sequence (P30086 whole entry, one chain of several): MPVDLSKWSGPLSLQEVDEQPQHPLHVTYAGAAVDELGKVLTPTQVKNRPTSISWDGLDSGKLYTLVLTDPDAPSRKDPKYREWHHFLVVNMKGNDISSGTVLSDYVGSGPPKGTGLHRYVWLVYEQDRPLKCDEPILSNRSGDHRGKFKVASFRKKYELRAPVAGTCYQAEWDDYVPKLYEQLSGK

[3] = target: T2, interaction between TβR1 and RKIP (Homo sapiens, UniProt P30086+P36897); assay: Immunoprecipitation of TβR1-RKIP interaction in transfected HEI-193 cells; type: cell-based; details: FLAG-TβR1- or HA-RKIP-transfected HEI-193 cells, indicated concentrations, 6 h (FIGS. 8A, 9A)
T2 construct: host or cells: HEI-193
T2 sequence (P36897 34-503): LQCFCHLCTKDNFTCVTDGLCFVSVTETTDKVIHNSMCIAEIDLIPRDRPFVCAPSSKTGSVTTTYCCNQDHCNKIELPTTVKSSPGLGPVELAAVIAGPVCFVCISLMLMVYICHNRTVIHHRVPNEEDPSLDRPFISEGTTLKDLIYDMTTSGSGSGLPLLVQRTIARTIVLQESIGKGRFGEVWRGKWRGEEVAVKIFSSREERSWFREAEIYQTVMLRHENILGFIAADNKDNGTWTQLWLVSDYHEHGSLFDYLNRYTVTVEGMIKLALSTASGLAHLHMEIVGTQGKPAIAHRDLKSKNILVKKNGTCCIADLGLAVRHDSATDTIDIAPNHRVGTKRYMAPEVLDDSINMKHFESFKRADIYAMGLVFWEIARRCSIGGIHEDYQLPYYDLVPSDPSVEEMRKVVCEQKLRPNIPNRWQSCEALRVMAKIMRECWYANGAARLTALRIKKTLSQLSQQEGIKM
T2 sequence (P30086 2-187 limits assumed): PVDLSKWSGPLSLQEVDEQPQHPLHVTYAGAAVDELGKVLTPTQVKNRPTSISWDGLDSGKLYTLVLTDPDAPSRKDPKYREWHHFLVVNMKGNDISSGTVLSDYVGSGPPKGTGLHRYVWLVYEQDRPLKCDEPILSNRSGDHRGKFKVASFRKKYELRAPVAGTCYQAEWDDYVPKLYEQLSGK
Description: as §1

[4] = system: HEI-193 cells; assay: Cell-cycle analysis by FACS in HEI-193 cells; type: cell-based, human; details: 10 μM, 4 days (FIGS. 12A, 13A)
Description: […] After 4 days, the cells were fixed with 70% ethanol and labeled with propidium iodine. These samples were analyzed by FACS for cell-cycle analysis. After 7 days of treatment with DMSO (control group), PRG-N-01, or TEW7197 at the indicated concentration, the cells were fixed with 4% paraformaldehyde and then stained with indicated antibody. A minimum of 10,000 cells were analyzed using an Attune NxT Flow cytometer (Thermo Fisher Scientific, Inc., Rockford, IL, USA).

[5] = system: HEI-193 cells; assay: Morphological change / differentiation of HEI-193 cells; type: cell-based, human; details: 7 days (FIGS. 12C, 13B)
[6] = system: HEI-193 cells; assay: FACS analysis and IF staining of schwann cell markers in HEI-193 cells; type: cell-based, human; details: 7 days, compared with TEW7197 (FIG. 12F)
Description: Cells were seeded on cover glass, washed with PBS, fixed with 4% paraformaldehyde (PFA) for 30 minutes at room temperature, and then permeabilized with 0.2% Triton X-100 at room temperature for 5 minutes. After treatment with blocking buffer [3% goat serum diluted in PBS] for 1 hour, cells were reacted with the specified antibody in the blocking buffer overnight at 4° C. Finally, the cells were reacted with secondary antibodies conjugated with FITC or rhodamine at 4° C. for 7 hours. The nuclei were stained with DAPI at room temperature for 10 minutes. After the cells were washed 3 times with PBS, the cover glass was mounted with a mounting solution (H-5501, Vector Laboratories, Cambridgeshire, UK) and immunofluorescence signals were detected using a fluorescence microscopy (Zeiss, Jena, Germany). In addition, for flow cytometry, cells were seeded in a 6-well plate and reacted with DMSO (control group), PRG-N-01 (5 μM), or TEW7197 (5 μM), respectively. After 4 days, the cells were fixed with 70% ethanol and labeled with propidium iodine. These samples were analyzed by FACS for cell-cycle analysis. […] A minimum of 10,000 cells were analyzed using an Attune NxT Flow cytometer (Thermo Fisher Scientific, Inc., Rockford, IL, USA).

[7] = system: mouse schwannoma cells; assay: Allograft tumor growth assay; type: in vivo
Description: For allograft, 1×10^7 mouse schwannoma cells were seeded subcutaneously on FVB/NJ mice (8 weeks old). Tumor-bearing mice were administered with the carrier (n=8) or PRG-N-01 (20 mg/kg; n=8) by intraperitoneal injection for 5 weeks (3 times per week). Every week, the tumor volume and body weight were measured. After termination of the experiment in each group, mice were dissected, and tumor tissues were isolated.
To examine the in vivo effect of PRG-N-01, NF2 model mouse-derived schwannoma cells were allografted to 8-week-old mice, and PRG-N-01 was administered by intraperitoneal injection (20 mg/kg, 3 times a week).

[8] = isolated allograft tumors, RT-PCR (FIG. 17E)

CCN(CC)CCOc1ccc(-c2nnn(Cc3ccc(OC)cc3)c2N)cc1 [PRG-N-01, 4-(4-(2-(diethylamino)ethoxy)phenyl)-1-(4-methoxybenzyl)-1H-1,2,3-triazol-5-amino]
antiproliferative effect in NF2 cells (MTT) [1]: obvious antiproliferative effect | interaction between TβR1 and RKIP at low concentrations ([2]; GST pull-down, low concentrations (FIG. 6B)): showed an inhibitory effect even at low concentrations | interaction between TβR1 and RKIP ([2]; GST-RKIP beads with TβR1-transfected HEK293 lysates, 5 and 10 μM, 2 h (FIG. 5B)): inhibited the interaction between TβR1 and RKIP in a dose-dependent manner | binding between TβR1 and RKIP (IP) [3]: interrupted the binding in a dose-dependent manner | cell cycle [4]: cell cycle arrest was induced at the G1 phase | morphological changes [5]: induced morphological changes | schwann cell markers (FACS analysis) [6]: clearly increased schwann cell markers compared to TEW7197 | SOX2 mRNA in tumor tissues [7, 8]: reduction | schwann cell markers and SOX10 mRNA in tumor tissues [7, 8]: induction | RKIP, schwann cell markers (PLP, MBP, MPZ) and SOX10 at the protein level in tumor tissues ([7]; isolated allograft tumors, immunoblotting (FIG. 17D)): induction | tumor growth ([7]; mouse schwannoma allograft in FVB/NJ mice, 20 mg/kg i.p., 3 times a week, 5 weeks): inhibited tumor growth | tumor size and weight ([7]; mouse schwannoma allograft, 20 mg/kg i.p., 3 times a week, 5 weeks (FIGS. 17B, 17C)): obviously suppressed

Source: patent publication US20240092741A1, “COMPOSITION FOR PREVENTION OR TREATMENT OF NEUROFIBROMATOSIS TYPE 2 SYNDROME” (PRG S&TECH INC., priority 2021, published 2024)
